In this experiment the test system is Alternaria solani. Kind of experiment: Detached tomato leaf antifungal assay. It is filed as in vivo. The note with it: for size of the fungus induced damage compared to untreated control: 80 mg/L spray.

On to `O=C[C@H](O)[C@@H](O)[C@@H](OS(=O)(=O)O)[C@H](O)CO` [Gal-S, D-galactose-4-O-sulphate], for which the “size of the fungus induced damage compared to untreated control” value is “significant reduction in the size of the fungus induced damage”. Further, the “fungal lesion size compared to untreated control” value (8 mg/L spray) was “does not show significant reduction in the fungal lesion size”. With `O=Cc1ccc(CO)o1` [HMF, Hydroxymethylfurfural], the “size of the fungus induced damage compared to untreated control” value was “significant reduction in the size of the fungus induced damage”.

For the origin of these results see patent US12016334B2, “Composition comprising sulphated galactose, and implementations thereof” (priority 2018, dated 2024).
